Data set [1] has as its system isolated papillary muscle of the right ventricle of guinea pigs. Briefly: In vitro functional refractory period on electrically stimulated papillary muscles from guinea-pig hearts. As to conditions: concentration prolonging FRP by 12 milliseconds; stimulation 3 Hz; 20 minutes after addition.
Procedure: The heart was quickly removed from guinea pigs which had been sacrificed by a blow to the back of the neck and the papillary muscles of the right ventricle were fixed in organ baths through which temperature-controlled oxygenated nutrient solution flowed. The muscle preparations were electrically stimulated with a frequency of 3 Hz. The test substances were added to the organ baths in increasing concentrations (cumulatively). In each case 20 minutes after addition of the test substance, the functional refractory period was determined by means of a double pulse protocol. In each case a cumulative concentration/action curve was plotted from the measured values. The concentration at which a prolongation of the FRP by 12 milliseconds was achieved was calculated from this as the effective concentration (=FRP-EC+12ms).
Another data set concerns mice. Briefly: Determination of the minimum toxic dose. Type of data set: in vivo. As to conditions: mouse p.o.; lowest dose causing death or severe toxic symptoms; maximum dose 300 mg/kg; observed 72 hours. Here is the method: Male mice each having a weight of 20 to 25 g were administered maximum doses of 300 mg/kg of the test substance p.o. The animals were observed carefully for toxicity symptoms for 3 hours. Additionally all symptoms and deaths were recorded over a period of 72 hours after administration. Concomitant symptoms were likewise observed and recorded. If death or severe toxic symptoms were observed, further mice were administered increasingly lower doses until toxic symptoms no longer occurred. The lowest dose which caused death or severe toxic symptoms is indicated in the following Table A as the minimum toxic dose.

In data set [2] the test system is anaesthetised guinea pigs. Nature of the data set: In vivo antiarrhythmic properties (ERP) and blood pressure under tachycardic conditions in anaesthetised guinea pigs. On the set-up: species or system guinea pig. As to conditions: i.v. The text has this: The effects of the substances on the effective refractory period (=ERP) and the blood pressure on i.v. administration with increased heart rate were investigated on anaesthetised guinea pigs. A bipolar stimulation catheter was inserted into the right ventricle of the animals via a jugular vein under full anaesthesia. The heart rates of the animals were kept at about 150% of their normal heart rates via this catheter by means of electrical stimulation during the entire investigation. A cannula for i.v. administration of the test substances was inserted in the other jugular vein. During the investigation, the systolic and the diastolic arterial blood pressure (=SAP and DAP) were measured in a carotid artery via a pressure gauge (Statham pressure transducer). The test substances were administered i.v. in increasing doses (cumulatively). Before administration of the first dose and in each case 8 minutes after administration of each dose, the ERP was determined by means of a double pulse protocol. The dose at which a prolongation of the ERP to 115% of the starting value was achieved was considered as the effective dose (=ERP-ED115). Effective doses for a hypotensive effect were considered as the dose at which the SAP was decreased to 85% of its starting value (=SAP-ED85), and the dose at which the DAP was decreased to 85% of its starting value (=DAP-ED85).

In a further data set the test system is anaesthetised cats. Briefly: In vivo fibrillation threshold in anaesthetised cats. As to conditions: more marked on the atrium than on the ventricle. The arrangement: species or system cat. The text has this:
Such an atrioselective increase in the fibrillation threshold is an indication that the tested compound has a beneficial action profile with a reduced proarrhythmogenity risk.

Data set [3] relates to isolated perfused rabbit hearts. Briefly: In vitro potential proarrhythmogenity on isolated perfused rabbit hearts (monophasic action potential). As to conditions: three hearts (n=3), one value each; for Instability: control about 7 ms; for Triangulation: control about 90 ms. As to the method: The extent of the potential proarrhythmogenity of Class III antiarrhythmic substances can be estimated using the measurement of electrophysiological parameters such as “instability” and “triangulation” (see below) on the monophasic action potential, derived from isolated perfused rabbit hearts. The pharmacological test set forth below was performed analogously to the method fundamentally described in L. M. Hondeghem et al., Circulation 103 (2001) 2004-2013 (referred to hereafter as “Hondeghem et al.”), in conjunction with L. M. Hondeghem, Journal of Cardiovascular Electrophysiology 5(8) (1994) 711-721 (referred to hereafter as “Hondeghem”). The hearts were quickly removed from rabbits which had been sacrificed by a blow to the back of the neck, and were immediately perfused in a Langendorff arrangement under constant pressure (80 cm H2O) with temperature-controlled oxygenated nutrient solution. The heart was stimulated with different stimulation protocols using two stimulation electrodes which were each arranged in the region of the right and left crus of the bundle of His (cf. “Hondeghem et al.”). Two further electrodes (one discharge electrode endocardially in the region of the septum of the left ventricle and a reference electrode epicardially on the left ventricle) served to discharge the monophasic action potential.
Using the monophasic action potential duration with different repolarisation levels (APD10-90; “APD10” designates the action potential duration until the occurrence of 10% of repolarisation), the following parameters were derived as indicators of the proarrhythmogenity:
(1) Instability: The change in the APD60 from heartbeat to heartbeat is designated “instability”. Under control conditions, this value is on average about 7 milliseconds (=ms). Greater deviations from this average value towards a longer duration (>7 ms) indicate an increased probability of occurrence for proarrhythmias caused by the test substances investigated.
(2) Triangulation: The repolarisation time in ms from APD30 to ADP90 is designated “triangulation”. Under control conditions, this value is usually about 90 ms.
The results obtained with the method described above on three hearts (n=3) in each case are reproduced in the following Table D.

A further data set addresses T1, iKr (HERG) (Homo sapiens, UniProt Q12809).
T1 construct: expressed in transfected cells; host or cells: HEK293 (ATCC CRL-1573), stably transfected
Nature of the data set: Blocking action on rapid delayed rectifier potassium current iKr (HERG), HEK293 cells stably transfected. It is filed as cell-based. As to conditions: HEK293 cells stably transfected with HERG. Here is the method: The iKr (HERG) can be measured selectively in the manner stated below: to measure the iKr, a cell line (human embryonal kidney cells, HEK293; see e.g. American Tissue Culture Collection (=ATCC) No.: CRL-1573) is used, which is stably transfected with the gene for the iKr (HERG) (cf. Z. Zhou et al., Biophysical Journal 74(1) (1998) 230-241). […] The iKr is determined using the current amplitude at −40 mV holding potential immediately after a 500 ms pulse protocol of −75 mV holding potential at most +10 mV depolarisation. That substance concentration at which 50% of the maximum current is blocked (IC50 %) is determined from the inhibitions of the corresponding current at different substance concentrations.

The target in the next data set is T2, iKs (Canis lupus familiaris, UniProt A0A8I3N8W8).
T2 construct: the individualised cardiac muscle cells are investigated electrophysiologically using the “whole-cell patch-clamp” method; from tissue; host or cells: isolated dog left ventricular cardiac muscle cells
T2 sequence (A0A8I3N8W8 1-676): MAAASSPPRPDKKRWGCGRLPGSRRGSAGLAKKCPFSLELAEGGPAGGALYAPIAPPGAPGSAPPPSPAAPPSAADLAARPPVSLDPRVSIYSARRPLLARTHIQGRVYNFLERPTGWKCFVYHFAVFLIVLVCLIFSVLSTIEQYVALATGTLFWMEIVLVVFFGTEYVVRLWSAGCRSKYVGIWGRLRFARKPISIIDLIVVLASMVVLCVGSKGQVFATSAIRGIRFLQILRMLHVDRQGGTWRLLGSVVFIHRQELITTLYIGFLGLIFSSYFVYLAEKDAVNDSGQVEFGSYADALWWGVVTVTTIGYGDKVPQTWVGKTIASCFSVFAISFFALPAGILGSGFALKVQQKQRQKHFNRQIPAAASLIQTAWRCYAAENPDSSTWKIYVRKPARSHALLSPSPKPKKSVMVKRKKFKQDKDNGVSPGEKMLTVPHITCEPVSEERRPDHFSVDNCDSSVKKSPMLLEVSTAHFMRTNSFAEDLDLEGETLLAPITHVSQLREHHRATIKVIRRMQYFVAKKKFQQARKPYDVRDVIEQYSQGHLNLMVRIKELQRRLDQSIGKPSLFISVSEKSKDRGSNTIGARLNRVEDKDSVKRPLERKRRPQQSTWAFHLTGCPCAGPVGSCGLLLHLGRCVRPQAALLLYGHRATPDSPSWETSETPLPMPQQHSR
Briefly: Blocking action on slow delayed rectifier potassium current iKs, whole-cell patch-clamp on dog cardiac muscle cells. It is filed as cell-based. As to conditions: dog left ventricle cardiac muscle cells; 1 μM nisoldipine and 2 μM E-4031 added; holding potential -40 mV. As to the method:
The iKs can be measured selectively in the manner described below: the hearts are quickly removed from anaesthetised dogs and a muscle section from the left ventricle is perfused with collagenase-containing solution via an arterial vessel. The well-dissociated tissue is comminuted and the individualised cardiac muscle cells are investigated electrophysiologically using the “whole-cell patch-clamp” method (cf. O. P. […] The iKs is then determined using the current amplitude immediately after a 5-second pulse protocol of -40 mV holding potential at most +50 mV depolarisation. The iKr (HERG) can be measured selectively in the manner stated below: to measure the iKr, a cell line (human embryonal kidney cells, HEK293; see e.g. American Tissue Culture Collection (=ATCC) No.: CRL-1573) is used, which is stably transfected with the gene for the iKr (HERG) (cf. Z. Zhou et al., Biophysical Journal 74(1) (1998) 230-241). […] The iKr is determined using the current amplitude at -40 mV holding potential immediately after a 500 ms pulse protocol of -75 mV holding potential at most +10 mV depolarisation. That substance concentration at which 50% of the maximum current is blocked (IC50 %) is determined from the inhibitions of the corresponding current at different substance concentrations.
(In general: The patch-clamp technique gives a direct electrical read-out from membranes.)

Structures are written as SMILES.

T1 sequence (Q12809 whole entry): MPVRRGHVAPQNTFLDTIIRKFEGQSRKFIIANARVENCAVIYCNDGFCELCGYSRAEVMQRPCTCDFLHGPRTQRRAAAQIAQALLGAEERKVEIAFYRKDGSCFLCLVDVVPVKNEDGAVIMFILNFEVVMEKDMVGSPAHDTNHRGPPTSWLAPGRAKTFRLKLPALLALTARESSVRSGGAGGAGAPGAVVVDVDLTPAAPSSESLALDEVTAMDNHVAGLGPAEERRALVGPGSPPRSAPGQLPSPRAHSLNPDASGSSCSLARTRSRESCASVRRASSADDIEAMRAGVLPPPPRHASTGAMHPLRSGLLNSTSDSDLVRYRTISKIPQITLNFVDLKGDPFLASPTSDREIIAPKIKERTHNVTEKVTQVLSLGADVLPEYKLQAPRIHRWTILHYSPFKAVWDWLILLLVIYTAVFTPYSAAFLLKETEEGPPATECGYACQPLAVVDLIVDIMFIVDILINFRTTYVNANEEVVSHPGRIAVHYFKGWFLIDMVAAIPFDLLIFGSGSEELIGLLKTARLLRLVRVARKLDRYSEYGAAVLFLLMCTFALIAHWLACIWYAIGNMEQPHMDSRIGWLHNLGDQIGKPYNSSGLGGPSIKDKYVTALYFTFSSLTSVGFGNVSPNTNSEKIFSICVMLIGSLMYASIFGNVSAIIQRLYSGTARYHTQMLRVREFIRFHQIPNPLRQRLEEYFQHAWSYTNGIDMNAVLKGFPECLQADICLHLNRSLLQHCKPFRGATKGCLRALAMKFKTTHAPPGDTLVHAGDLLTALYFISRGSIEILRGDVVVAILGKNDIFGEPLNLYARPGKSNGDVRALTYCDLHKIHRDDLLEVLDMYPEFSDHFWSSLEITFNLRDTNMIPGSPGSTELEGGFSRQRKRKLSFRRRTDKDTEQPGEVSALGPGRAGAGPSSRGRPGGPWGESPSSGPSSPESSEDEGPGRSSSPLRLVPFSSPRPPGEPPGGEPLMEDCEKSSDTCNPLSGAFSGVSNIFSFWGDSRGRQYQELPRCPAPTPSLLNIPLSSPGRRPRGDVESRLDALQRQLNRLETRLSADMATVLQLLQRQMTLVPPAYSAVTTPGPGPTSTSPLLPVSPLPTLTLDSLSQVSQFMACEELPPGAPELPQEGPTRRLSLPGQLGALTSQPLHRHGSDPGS

Regarding `CCCCN1CC2CN(c3ccc([N+](=O)[O-])cc3[N+](=O)[O-])CC(C1)C2(C)C` [Example 1, 7-(n-Butyl)-3-(2,4-dinitrophenyl)-9,9-dimethyl-3,7-diazabicyclo[3.3.1]nonane], the “Antiarrhythmic action FRP-EC+12 ms” value in data set [1] turned out to be 0.6 µmol/L. For the same molecule, the Minimum toxic dose with mice is 300 mg/kg. Moreover, the “Antiarrhythmic action ERP-ED115” value in data set [2] (cumulative doses, dose prolonging ERP to 115% of starting value, heart rate about 150% of normal) was determined as 0.4 µmol/kg. Besides, the “Vasodepression ED85 DAP” value in data set [2] (dose decreasing diastolic arterial pressure to 85% of starting value, >> = no tendency to vasodepression at the doses tested) was >>10 μmol/kg. The “Vasodepression ED85 SAP” value in data set [2] (dose decreasing systolic arterial pressure to 85% of starting value, >> = no tendency to vasodepression at the doses tested) was >>10 μmol/kg.
A word on the IC50: it is the concentration needed to halve the response being measured. Low values mean higher potency, high ones lower potency. Take `CCCCN1CC2CN(c3ccc(C#N)cc3)CC(C1)C21CCCC1.O=C(O)C(O)C(O)C(=O)O` [Example 4, 7-(n-Butyl)-3-(4-cyanophenyl)-9,9-tetramethylene-3,7-diazabicyclo[3.3.1]nonane Hydrogen Tartrate]: the “Antiarrhythmic action FRP-EC+12 ms” value in data set [1] was determined as 0.8 µmol/L. Further, the “increase in the fibrillation threshold” value with anaesthetised cats (administration i.v.) is given as “dosage-dependent, clear, long-lasting increase in the fibrillation threshold”; with anaesthetised cats (administration p.o.), “dosage-dependent, clear, long-lasting increase in the fibrillation threshold”. Further, the Instability in data set [3] (0.3 μM) is reported as 6/3/3; in data set [3] (1 μM), 6/25/7. The values for the Triangulation in data set [3] (0.3 μM) and in data set [3] (1 μM) were 48/64/62 and 52/79/79, respectively. In addition, the concentration for half-maximal inhibition (IC50) at iKr (HERG) was 20 nM; against iKs, 700 nM.

The values are drawn from patent US6602880B2, “3-phenyl-3,7-diazabicyclo[3.3.1] nonane compounds, process for preparing them, pharmaceutical compositions containing them and use thereof to inhibit cardiac arrhythmia” (priority 2001, dated 2003).
